Data set [1] has as its target T1, HCV NS3-4A serine protease (full-length NS3-4A protein, genotype 1a, strain HCV-1) (Hepatitis C virus genotype 1a, UniProt P26664).
T1 construct: using the full-length NS3-4A protein (genotype 1a, strain HCV-1)
The experiment in a line: HCV NS3-4A protease assay. The data set is classed as biochemical. To be noted: Protease IC50. The protocol: The inhibitory activity of certain compounds of Table A against HCV NS3-4A serine protease is determined in a homogenous assay using the full-length NS3-4A protein (genotype 1a, strain HCV-1) and a commercially available internally-quenched fluorogenic peptide substrate as described by Taliani, M., et al. 1996 Anal. Biochem. 240:60-67, which is incorporated by reference in its entirety.

Data set [2] can be described thus: in vivo. Also on record: species or system Sprague Dawley rats. To be noted: Sprague Dawley, rat. The protocol: Certain compounds of Table A and Comparative Example 1 (Compound A-7 of copending international patent application serial no. PCT/EP08/063,460) are administered as a solution orally via gavage at 10 mg/kg to Sprague Dawley rats at a dosing volume of 10 ml/kg. Samples are collected via a surgically implanted cannula at selected timepoints deemed necessary to characterize pharmacokinetic parameters. Blood samples are placed on wet ice and spun down to plasma within 5 minutes of timepoint collection. Plasma samples are frozen until bioanalytical analysis.
Certain compounds of Table A and Comparative Example 1 are administered intravenously into a surgically implanted cannula as a solution at 1 mg/kg to Sprague Dawley rats at a dosing volume of […]. Samples are collected via another surgically implanted cannula at selected timepoints deemed necessary to characterize pharmacokinetic parameters. Blood samples are placed on wet ice and spun down to plasma within 5 minutes of timepoint collection. Plasma samples are frozen until bioanalytical analysis.

Data set [3] can be described thus: Measurement of thermodynamic solubility. The format is physicochemical. To be noted: thermodynamic from solid, read-out: solubility in water. The protocol: Thermodynamic solubility for the compounds of the invention listed in Table C is measured by a published literature procedure, e.g., Liping Zhou, et al., J. Pharm. Sci (2007) 96(11): 3052-3071.
The DMSO stocks of test compounds previously dissolved in 25 μL of DMSO (˜10 mM) in mini-prep vial (MPV: Whatman, with PVDF filter and 0.45 μm pore size) chamber were evaporated via a GeneVac HT-4X evaporator for approximately 1 hour, at the guard temperature of 30° C. An aliquot of 250 μL buffer solution (pH 1.0 or 6.8) was added into each MPV chamber containing powders reconstituted from DMSO stock solutions. The MPV filter plungers were pushed down into the chamber until the membrane of the filter plunger slightly touched the surface of the buffer to promote equilibrium between the two compartments and to minimize the adsorption due to non-specific binding of samples during the subsequent 24-hr incubation (at 600 RPM at room temperature). Immediately after the 24-hr incubation, the plungers were further pushed down to the bottom of the chambers. More solution was pushed through the membrane and entered the plunger compartment. The filter/chamber assemblies were then put on a shaker for another 30 minutes at 600 RPM. Afterwards, filtrates were further diluted (1:10) with 50/50 acetonitrile/water solvent followed by a thorough mixing process. Both plates with diluted and undiluted filtrates were analyzed by HPLC and quantified against the four-point standard dilution curve of the same test compound (5 μM, 35 μM, 65 μM and 100 μM, respectively). In the current study, solubility reflects the average of triplicate samples tested at each pH.

Structures are written as SMILES. Read-outs that look alike come from different tables or passages of the source.

Broadly, the IC50 is the concentration at which inhibition is half-maximal. A word on the bioavailability: it is the share of a dose that reaches the circulation, judged against a reference dose that is usually intravenous. High values mean much systemic uptake, low ones little systemic uptake. The term Cmax denotes the maximum level reached in the sampled fluid or tissue. In general, solubility refers to the dissolved amount per volume that the medium holds.

T1 sequence (P26664 1658-1711): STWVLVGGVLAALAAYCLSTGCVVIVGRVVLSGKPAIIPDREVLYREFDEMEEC
T1 sequence (P26664 1027-1657): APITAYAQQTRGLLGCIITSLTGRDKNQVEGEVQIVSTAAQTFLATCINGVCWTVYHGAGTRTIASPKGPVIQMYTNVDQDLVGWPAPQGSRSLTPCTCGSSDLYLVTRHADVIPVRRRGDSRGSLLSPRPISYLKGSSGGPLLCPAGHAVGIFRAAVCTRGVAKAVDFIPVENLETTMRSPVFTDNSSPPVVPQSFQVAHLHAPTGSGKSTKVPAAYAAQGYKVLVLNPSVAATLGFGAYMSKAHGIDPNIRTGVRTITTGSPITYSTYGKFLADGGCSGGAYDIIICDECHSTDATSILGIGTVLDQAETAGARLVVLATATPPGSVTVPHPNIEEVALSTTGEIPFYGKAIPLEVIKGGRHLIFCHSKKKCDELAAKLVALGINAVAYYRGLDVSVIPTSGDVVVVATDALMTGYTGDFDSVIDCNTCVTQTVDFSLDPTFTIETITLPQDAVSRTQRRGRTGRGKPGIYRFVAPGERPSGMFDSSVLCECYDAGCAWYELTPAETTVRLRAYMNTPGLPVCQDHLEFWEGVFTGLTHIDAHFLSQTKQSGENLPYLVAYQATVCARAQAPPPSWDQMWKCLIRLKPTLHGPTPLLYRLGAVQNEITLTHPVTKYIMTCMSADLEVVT

On to `CC[C@@H]1C[C@]1(NC(=O)[C@@H]1C[C@@]2(CN1C(=O)[C@@H](NC(=O)[C@@H](NC(=O)[C@@H]1CCCCN1CC)C1CCCCC1)C(C)(C)C)C(C)(C)C21CCC1)C(=O)NS(=O)(=O)C1(C)CC1` [Compound 83, (5R,8S)-7-[(2S)-2-{[(2S)-2-cyclohexyl-2-({[(2S)-1-ethylpiperidin-2-yl]carbonyl}amino)acetyl]amino}-3,3-dimethylbutanoyl]-N-[(1R,2R)-2-ethyl-1-{[(1-methylcyclopropyl)sulfonyl]carbamoyl}cyclopropyl]-10,10-dimethyl-7-azadispiro[3.0.4.1]decane-8-carboxamide], for which the IC50 in data set [1] turned out to be 2.5 nM. Also, the bioavailability in data set [2] stood at 26%. This compound registered a Cmax in data set [2] (po, 10 mg/kg) of 578 nM. For the same compound, the solubility at 24 h in data set [3] (pH 1, simulated gastric fluid, pH of about 1) was at least 100 µM; in data set [3] (pH 6.8, aqueous buffer, pH of about 6.8) it was at least 30 µM.

Values taken from patent publication US20110182850A1, “ORGANIC COMPOUNDS AND THEIR USES” (priority 2009, published 2011).
